Measured values taken from US5994349A, “3-carboalkoxy-2, 3-dihydro-1H-phenothiazin-4[10H]-one derivatives” (priority 1997, dated 1999).
Read-outs that look alike come from different tables or passages of the source.

Columns and labels:
[1] = tested on: maximal electroshock seizures; assay: maximal electroshock (MES) test, Phase I, mice ip; format: in vivo, male Carworth Farms No. 1 (CF1) mice; details: Mus musculus
Protocol: (§1) Initial evaluations for anticonvulsant activity include phases I, VIA and VIB test procedures. These tests are performed intraperitoneally in male Carworth Farms No. 1 (CF1) mice, weighing 18-25 g (Phase I) or orally in male Sprague-Dawley rats, weighing 100-150 g (Phases VIA and VIB). The evaluation is based on three tests: maximal electroshock (MES), subcutaneous (scMet), and the rotorod test for neurological toxicity (Tox). (a) Anticonvulsant Screening Project, Antiepileptic Drug Development Program, National Institutes of Health, DHEW Publ (NIH)(U.S.) 1978, NIH 78-1093. (b) Porter, R. J.; Cereghino, J. J.; Gladding, G. D.; Hessie, B. J.; Kupferberg, H. J.; Scoville, B.; White, B. G. Antiepileptic drug development program. Cleveland Clin. Q. 1984, 51, 293-305. (c) Krall, R. L.; Penry, J. K.; White, B. G.; Kupferberg, H. J.; Swinyard, E. A. Antiepileptic drug development: II. Anticonvulsant drug screening. Epilepsia 1978, 19, 400-428. In the MES test, maximal electroshock seizures are elicited with a 60- cycle alternating current of 50 mA intensity (5-7 times that necessary to elicit minimal electroshock seizures) delivered via corneal electrodes for 0.2 seconds. A drop of 0.9% saline is placed on the eye prior to application of the electrodes in order to […]. Abolition of the hind limb tonic extension component of the seizure is defined as protection and results are expressed as the number of animals protected/the number of animals tested.
In phase I, compounds are suspended in 0.5% aqueous methylcellulose and are administered intraperitoneally at three dosage levels (30, 100, and 300 mg/kg) with anticonvulsant activity and motor impairment noted 30 min and 4 h (and in some cases 2 h and 6 h) after administration.

neurotoxicity (rotorod) [2] = assay: rotorod test for neurological toxicity (Tox), Phase I, mice ip; format: in vivo, male Carworth Farms No. 1 (CF1) mice
Protocol: as §1
The rotorod test is used to evaluate neurotoxicity. The animal is placed on a 1 inch diameter knurled plastic rod rotating at 6 rpm. Normal mice can remain on a rod rotating at this speed indefinitely. […]

[3] = tested on: pentylenetetrazol seizures; assay: subcutaneous pentylenetetrazol (scMet) test, Phase I, mice ip; format: in vivo, male Carworth Farms No. 1 (CF1) mice; details: Mus musculus, mice ip
Protocol: as §1
In the sc MET test, eighty-five mg/kg of pentylenetetrazol, which induces seizures in more than 95% of mice, is administered as a 0.5% solution subcutaneously in the posterior midline. The animal is observed for 30 minutes. Failure to observe even a threshold seizure (a single episode of clonic spasms of at least 5 seconds duration) is defined as protection and the results are expressed as the number of animals protected/ the number of animals tested. […]

neurotoxicity (rotorod) [4] = assay: rotorod toxicity, oral rat (Phase VIA/VIB); format: in vivo, male Sprague-Dawley rats; details: rat oral, 30 mg/kg
Protocol: as §1
The rotorod test is used to evaluate neurotoxicity. The animal is placed on a 1 inch diameter knurled plastic rod rotating at 6 rpm. Normal mice can remain on a rod rotating at this speed indefinitely.
(§2) To differentiate the results between different rodent species, 4b (X=H), as well as 4a (R=H), 4e (R=Cl), 4f (R=Cl) and 4i (R=CH3) are subsequently evaluated for oral (po) activity in the rat (Phase VIA or VIB).

[5] = tested on: maximal electroshock seizures; assay: maximal electroshock (MES) test, oral rat (Phase VIA/VIB); format: in vivo, male Sprague-Dawley rats; details: 30 mg/kg
Protocol: as §1, §2

[6] = 4 h, read-out: MES 4 h (converted)
[7] = 0.5 h, 30 min, read-out: MES 30 min (converted)
[8] = 0.5 h, 30 min, read-out: scMet 30 min
[9] = 0.5 h, 30 min, read-out: scMet 30 min (converted)
[10] = 4 h, read-out: scMet 4 h (converted)

Structure (SMILES) | responders at 30 mg/kg ([1]; 4 h, read-out: MES 4 h) | responders at 100 mg/kg [1, 6] | responders at 300 mg/kg [1, 6] | responders at 30 mg/kg [1, 7] | responders at 100 mg/kg [1, 7] | responders at 300 mg/kg [1, 7] | Tox 30 min (neurotoxicity (rotorod) [2]; 30 mg/kg) | Tox 4 h (neurotoxicity (rotorod) [2]; 30 mg/kg) | Tox 30 min (neurotoxicity (rotorod) [2]; 100 mg/kg) | Tox 4 h (neurotoxicity (rotorod) [2]; 100 mg/kg) | Tox 30 min (neurotoxicity (rotorod) [2]; 300 mg/kg) | Tox 4 h (neurotoxicity (rotorod) [2]; 300 mg/kg) | responders at 30 mg/kg [3, 8] | responders at 100 mg/kg [3, 8] | responders at 300 mg/kg [3, 9] | responders at 30 mg/kg ([3]; 4 h, read-out: scMet 4 h) | responders at 100 mg/kg ([3]; 4 h, read-out: scMet 4 h) | responders at 300 mg/kg [3, 10] | Tox (neurotoxicity (rotorod) [4]; 0.25 h) | Tox (neurotoxicity (rotorod) [4]; 0.50 h) | further results
COC(=O)[C@@H]1C(=O)C2=C(C[C@H]1C)Nc1ccc(Cl)cc1S2 (relative stereo) [Compound 4e, 7-Chloro-3-carbomethoxy-2-methyl-2,3-dihydro-1H-phenothiazin-4[10H] -one] | 0% | 66.7% | 100% | 0% | 0% | 0% | 0/4 | 0/2 | 0/8 | 0/4 | 0/4 | 0/2 | 0% | 0% | 0% | 0% | 0% | 0% | 0/4 | 0/4 | Tox (neurotoxicity (rotorod) [4]; 1.00 h): 0/4; Tox (neurotoxicity (rotorod) [4]; 2.00 h): 0/4; Tox (neurotoxicity (rotorod) [4]; 4.00 h): 0/4; responders at 30 mg/kg ([5]; 0.25 h): 0%; responders at 30 mg/kg ([5]; 1.00 h): 75%; responders at 30 mg/kg ([5]; 2.00 h): 75%; responders at 30 mg/kg ([5]; 4.00 h): 50%; responders at 30 mg/kg ([5]; 0.5 h, 0.50 h): 0%
COC(=O)[C@@H]1C(=O)C2=C(C[C@H]1C)Nc1ccccc1S2 (relative stereo) [Compound 4a, 3-Carbomethoxy-2-methyl-2,3-dihydro-1H-phenothiazin-4[10H] -one] | 0% | 33.3% | 100% | 0% | 100% | 100% | 0/4 | 0/2 | 0/8 | 0/4 | 1/4 | 0/2 | 0% | 0% | 0% | 0% | 0% | 0% | 0/4 | 0/4 | Tox (neurotoxicity (rotorod) [4]; 1.00 h): 0/4; Tox (neurotoxicity (rotorod) [4]; 2.00 h): 0/4; Tox (neurotoxicity (rotorod) [4]; 4.00 h): 0/4; responders at 30 mg/kg ([5]; 0.25 h): 0%; responders at 30 mg/kg ([5]; 1.00 h): 50%; responders at 30 mg/kg ([5]; 2.00 h): 25%; responders at 30 mg/kg ([5]; 4.00 h): 50%; responders at 30 mg/kg ([5]; 0.5 h, 0.50 h): 25%
CCOC(=O)[C@@H]1C(=O)C2=C(C[C@H]1C)Nc1ccc(C)cc1S2 (relative stereo) [Compound 4i, 3-Carbethoxy-2,7-dimethyl-2,3-dihydro-1H-phenothiazin-4[10H]-one] | 0% | 0% | 100% | 50% | 33.3% | 100% | 0/4 | 0/2 | 0/8 | 0/4 | 0/4 | 0/2 | 0% | 0% | 0% | 0% | 0% | 0% | 0/4 | 0/4 | Tox (neurotoxicity (rotorod) [4]; 1.00 h): 0/4; Tox (neurotoxicity (rotorod) [4]; 2.00 h): 0/4; Tox (neurotoxicity (rotorod) [4]; 4.00 h): 0/4; responders at 30 mg/kg ([5]; 0.25 h): 0%; responders at 30 mg/kg ([5]; 1.00 h): 75%; responders at 30 mg/kg ([5]; 2.00 h): 25%; responders at 30 mg/kg ([5]; 4.00 h): 0%; responders at 30 mg/kg ([5]; 0.5 h, 0.50 h): 50%
CCOC(=O)[C@@H]1C(=O)C2=C(C[C@H]1C)Nc1ccc(Cl)cc1S2 (relative stereo) [Compound 4f, 7-Chloro-3-carbethoxy-2-methyl-2,3-dihydro-1H-phenothiazin-4[10H] -one] | 0% | 33.3% | 100% | 0% | 66.7% | 100% | 0/4 | 0/2 | 0/8 | 0/4 | 0/4 | 0/2 | 0% | 0% | 0% | 0% | 0% | 40% | 0/4 | 0/4 | Tox (neurotoxicity (rotorod) [4]; 1.00 h): 0/4; Tox (neurotoxicity (rotorod) [4]; 2.00 h): 0/4; Tox (neurotoxicity (rotorod) [4]; 4.00 h): 0/4; responders at 30 mg/kg ([5]; 0.25 h): 0%; responders at 30 mg/kg ([5]; 1.00 h): 75%; responders at 30 mg/kg ([5]; 2.00 h): 75%; responders at 30 mg/kg ([5]; 4.00 h): 75%; responders at 30 mg/kg ([5]; 0.5 h, 0.50 h): 25%
